The experiment deals with WR vaccinia virus-infected 143B cell cultures. In kind it is in vivo, mice.

Structures are written as SMILES. “And” between values parts separate entries of the source, which are not always exact repeats. Equal entries are not always repeated.

In the case of `CC(C)Cn1cnc2c(N)nc3ccccc3c21` [Imiquimod], the “% Inhibition (plaque inhibition)” value was 13% and 22.6%.

(Values after patent US20110091484A1, “Compositions and methods for preventing or treating a viral infection” (priority 2005, published 2011).)
